Holding throughout (assay): Displacement of [3H]AMPA binding on membranes of transfected HEK293 cells
What all share (conditions): mean ± S.E.; for Hill slope: displacement of [3H]AMPA binding, Prism software

One assay concerns the target T1, GluR3 (5-42) (Homo sapiens, UniProt P42263).
T1 construct: expressed in transfected cells; host or cells: HEK293, plasmid pHGluR3/pcDNA3
How it is done: (§1) In order to examine the pharmacological identity of the stably expressed recombinant receptors, competitive binding studies were performed.
(§2) The binding studies were carried out as outlined previously (Keinänen et al., 1990; Fletcher et al., 1995). […] The pellets were resuspended in 50 mM Tris-HCl (pH 7.5) and repeated the homogenization and centrifugation. […] The cell membranes were incubated with the radioligand for 60 minutes on ice, and subsequently collected by rapid filtration through GF/C filters. […] The filters were washed rapidly with cold assay buffer. The radioactivity retained in the filters was measured by liquid scintillation counting.

The next assay concerns the target T2, GluR1 (1-24) (Homo sapiens, UniProt P42261).
T2 construct: expressed in transfected cells; host or cells: HEK293, plasmid pHGluR1/pcDNA3
How it is done:
as §1, §2

For the next assay, the target named is T3, GluR4 (4-19) (Homo sapiens, UniProt P48058).
T3 construct: expressed in transfected cells; host or cells: HEK293, plasmid pHGluR4/pcDNA3
How it is done: as §1, §2

Where [1] appears, read: displacement of [3H]AMPA, Cheng-Prusoff equation, 0.1 M KSCN, on ice.

T2 sequence (P42261 19-906 isoform P42261-2 limits assumed): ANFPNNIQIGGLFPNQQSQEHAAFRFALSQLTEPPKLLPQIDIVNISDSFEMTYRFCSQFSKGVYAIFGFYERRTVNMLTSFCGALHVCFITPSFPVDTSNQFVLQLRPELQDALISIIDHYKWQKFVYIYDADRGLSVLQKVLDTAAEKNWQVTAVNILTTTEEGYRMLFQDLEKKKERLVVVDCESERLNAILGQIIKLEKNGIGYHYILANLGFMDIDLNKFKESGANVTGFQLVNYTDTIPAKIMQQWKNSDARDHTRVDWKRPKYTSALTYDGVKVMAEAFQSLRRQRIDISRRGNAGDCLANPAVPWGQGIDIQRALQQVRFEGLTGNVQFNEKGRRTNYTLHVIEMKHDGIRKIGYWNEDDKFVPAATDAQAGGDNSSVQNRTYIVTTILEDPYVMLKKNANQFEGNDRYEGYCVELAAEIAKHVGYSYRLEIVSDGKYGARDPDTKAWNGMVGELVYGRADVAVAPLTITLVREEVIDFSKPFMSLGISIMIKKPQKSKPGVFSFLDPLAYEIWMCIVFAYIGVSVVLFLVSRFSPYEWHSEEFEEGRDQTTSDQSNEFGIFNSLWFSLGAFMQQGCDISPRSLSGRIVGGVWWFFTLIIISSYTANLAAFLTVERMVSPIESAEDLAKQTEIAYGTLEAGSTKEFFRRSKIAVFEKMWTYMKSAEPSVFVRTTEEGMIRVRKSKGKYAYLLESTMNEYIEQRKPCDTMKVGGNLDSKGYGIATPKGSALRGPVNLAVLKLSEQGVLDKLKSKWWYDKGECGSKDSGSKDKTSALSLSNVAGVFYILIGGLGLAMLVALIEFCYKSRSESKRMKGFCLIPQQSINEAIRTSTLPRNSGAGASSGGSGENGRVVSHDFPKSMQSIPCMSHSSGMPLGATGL
T1 sequence (P42263 29-894 isoform P42263-2 limits assumed): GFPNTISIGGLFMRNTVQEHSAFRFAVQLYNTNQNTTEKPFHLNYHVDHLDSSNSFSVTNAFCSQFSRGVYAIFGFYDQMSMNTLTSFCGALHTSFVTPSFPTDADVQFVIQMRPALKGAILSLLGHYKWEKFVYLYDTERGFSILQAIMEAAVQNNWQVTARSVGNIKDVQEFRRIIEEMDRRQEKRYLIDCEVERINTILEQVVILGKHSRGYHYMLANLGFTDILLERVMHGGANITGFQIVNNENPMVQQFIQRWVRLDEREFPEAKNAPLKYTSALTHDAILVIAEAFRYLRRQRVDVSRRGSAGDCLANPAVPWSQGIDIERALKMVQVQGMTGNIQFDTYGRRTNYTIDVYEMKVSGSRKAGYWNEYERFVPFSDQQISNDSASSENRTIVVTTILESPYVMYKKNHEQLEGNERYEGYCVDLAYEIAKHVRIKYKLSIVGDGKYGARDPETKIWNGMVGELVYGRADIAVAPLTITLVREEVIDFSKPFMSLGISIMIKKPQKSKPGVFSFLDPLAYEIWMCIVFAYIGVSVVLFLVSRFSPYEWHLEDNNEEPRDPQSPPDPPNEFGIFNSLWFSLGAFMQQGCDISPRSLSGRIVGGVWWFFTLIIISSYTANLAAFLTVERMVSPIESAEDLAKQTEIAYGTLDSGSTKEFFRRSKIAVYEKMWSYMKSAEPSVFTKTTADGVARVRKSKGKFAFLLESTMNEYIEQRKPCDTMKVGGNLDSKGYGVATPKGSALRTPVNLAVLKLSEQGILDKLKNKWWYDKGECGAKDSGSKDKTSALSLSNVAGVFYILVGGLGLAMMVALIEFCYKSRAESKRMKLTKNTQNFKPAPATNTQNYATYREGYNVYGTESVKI
T3 sequence (P48058 21-902): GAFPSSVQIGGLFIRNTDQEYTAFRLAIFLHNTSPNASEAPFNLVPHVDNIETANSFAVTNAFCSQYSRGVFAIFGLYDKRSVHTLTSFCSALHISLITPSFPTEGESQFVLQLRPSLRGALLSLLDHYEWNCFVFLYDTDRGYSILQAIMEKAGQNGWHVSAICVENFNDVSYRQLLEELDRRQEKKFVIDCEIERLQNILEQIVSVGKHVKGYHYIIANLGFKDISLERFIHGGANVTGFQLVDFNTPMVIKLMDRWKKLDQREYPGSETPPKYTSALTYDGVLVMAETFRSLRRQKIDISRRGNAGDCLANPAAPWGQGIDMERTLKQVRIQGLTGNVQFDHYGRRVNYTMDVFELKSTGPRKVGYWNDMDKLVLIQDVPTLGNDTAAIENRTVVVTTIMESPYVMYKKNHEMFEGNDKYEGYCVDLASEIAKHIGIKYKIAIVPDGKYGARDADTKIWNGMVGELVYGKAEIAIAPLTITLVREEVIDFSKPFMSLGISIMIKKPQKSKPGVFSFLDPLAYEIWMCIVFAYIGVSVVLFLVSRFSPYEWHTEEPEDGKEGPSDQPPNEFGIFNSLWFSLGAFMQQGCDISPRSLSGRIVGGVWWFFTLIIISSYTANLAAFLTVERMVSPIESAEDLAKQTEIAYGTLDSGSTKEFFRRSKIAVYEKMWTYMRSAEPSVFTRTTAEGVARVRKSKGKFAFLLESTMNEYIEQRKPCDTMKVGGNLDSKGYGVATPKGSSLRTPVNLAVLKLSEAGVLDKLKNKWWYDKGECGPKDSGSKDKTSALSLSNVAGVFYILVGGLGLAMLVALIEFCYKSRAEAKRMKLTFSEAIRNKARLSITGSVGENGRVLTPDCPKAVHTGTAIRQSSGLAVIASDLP

Usually Hill slope stands for the slope factor of the fitted curve. What is called Ki is the dissociation constant of the complex between target and ligand, obtained from inhibition or displacement. A lower Ki goes with a stronger hold on the target. With `CN1Cc2c(S(=O)(=O)N(C)C)cc3c(c2C1)NC(=O)C3=NO` [NS257], the results for the Hill slope at GluR3 (5-42), at GluR1 (1-24) and on GluR4 (4-19) were -1.01 ± 0.22, -0.85 ± 0.08 and -0.83 ± 0.03, respectively. Moreover, the Ki was determined as 967 ± 124 nM at GluR3 (5-42) (setting [1]), 1970 ± 148 nM at GluR1 (1-24) (setting [1]) and 1050 ± 78 nM at GluR4 (4-19) (setting [1]).

For `N#Cc1cc2[nH]c(=O)c(=O)[nH]c2cc1[N+](=O)[O-]` [CNQX], the Hill slope is recorded as -0.83 ± 0.06 at GluR3 (5-42), -1.00 ± 0.06 at GluR1 (1-24) and -0.86 ± 0.06 at GluR4 (4-19).

The record behind these values is patent EP1065215A1 (Boehringer Ingelheim International GmbH, priority 1999, dated 2001).
